Legend:
Type in all cases: in vivo
Kochia (Kochia scoparia) [1] = test: Test A preemergence; conditions: Bassia scoparia, pre-emergence, 240 h, 0 to 100 scale where 0 is no effect and 100 is complete control, read-out: Kochia plant response rating; for pest or weed control at 31 g/ha: 31 g ai/ha, Preemergence; for pest or weed control at 125 g/ha: 125 g ai/ha, preemergence, approx. 10 d
In short: (§1)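 Preemergence directed soil spray on seeded pots, or postemergence application to plants 2–10 cm, one- to two-leaf. Solvent mixture non-phytotoxic, with surfactant. Scored ~10 d later, visually, 0–100 vs untreated.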

[2] = system: barnyardgrass (Echinochloa crus-galli); test: Test A preemergence; conditions: Echinochloa crus-galli, pre-emergence, 240 h, 0 to 100 scale where 0 is no effect and 100 is complete control, read-out: Barnyardgrass plant response rating; for pest or weed control at 31 g/ha: 31 g ai/ha, Preemergence; for pest or weed control at 125 g/ha: 125 g ai/ha, preemergence, approx. 10 d
In short: as §1

[3] = system: giant foxtail (Setaria faberii); test: Test A preemergence; conditions: Setaria faberi, pre-emergence, 240 h, 0 to 100 scale where 0 is no effect and 100 is complete control, read-out: Foxtail, Giant plant response rating; for pest or weed control at 31 g/ha: 31 g ai/ha, Preemergence; for pest or weed control at 125 g/ha: 125 g ai/ha, preemergence, approx. 10 d
In short: as §1

[4] = system: pigweed (Amaranthus retroflexus); test: Test A preemergence; conditions: Amaranthus retroflexus, pre-emergence, 240 h, 0 to 100 scale where 0 is no effect and 100 is complete control, read-out: Pigweed plant response rating; for pest or weed control at 31 g/ha: 31 g ai/ha, Preemergence; for pest or weed control at 125 g/ha: 125 g ai/ha, preemergence, approx. 10 d
[5] = system: ragweed (common ragweed, Ambrosia elatior); test: Test A preemergence; conditions: Ambrosia artemisiifolia, pre-emergence, 240 h, 0 to 100 scale where 0 is no effect and 100 is complete control, read-out: Ragweed plant response rating; for pest or weed control at 31 g/ha: 31 g ai/ha, Preemergence; for pest or weed control at 125 g/ha: 125 g ai/ha, preemergence, approx. 10 d
In short: as §1

[6] = system: ryegrass, Italian (Italian ryegrass, Lolium multiflorum); test: Test A preemergence; conditions: Lolium multiflorum, pre-emergence, 240 h, 0 to 100 scale where 0 is no effect and 100 is complete control, read-out: Ryegrass, Italian plant response rating; for pest or weed control at 31 g/ha: 31 g ai/ha, Preemergence; for pest or weed control at 125 g/ha: 125 g ai/ha, preemergence, approx. 10 d
In short: as §1

Kochia (Kochia scoparia) [7] = test: Test A postemergence; conditions: Bassia scoparia, post-emergence, 240 h; for pest or weed control at 125 g/ha: 125 g ai/ha, postemergence, visual injury on 0 to 100 scale (0 no effect, 100 complete control), approx. 10 d, read-out: Kochia plant response rating; for pest or weed control at 31 g/ha: Postemergence, 31 g ai/ha, visual injury after approx. 10 d, 0 to 100 scale, 0 no effect, 100 complete control, read-out: Plant response rating, Kochia
In short: as §1

[8] = system: barnyardgrass (Echinochloa crus-galli); test: Test A postemergence; conditions: Echinochloa crus-galli, post-emergence, 240 h; for pest or weed control at 125 g/ha: 125 g ai/ha, postemergence, visual injury on 0 to 100 scale (0 no effect, 100 complete control), approx. 10 d, read-out: Barnyardgrass plant response rating; for pest or weed control at 31 g/ha: Postemergence, 31 g ai/ha, visual injury after approx. 10 d, 0 to 100 scale, 0 no effect, 100 complete control, read-out: Plant response rating, Barnyardgrass
In short: as §1

[9] = system: blackgrass (Alopecurus myosuroides); test: Test A postemergence; conditions: Alopecurus myosuroides, post-emergence, 240 h; for pest or weed control at 125 g/ha: 125 g ai/ha, postemergence, visual injury on 0 to 100 scale (0 no effect, 100 complete control), approx. 10 d, read-out: Blackgrass plant response rating; for pest or weed control at 31 g/ha: Postemergence, 31 g ai/ha, visual injury after approx. 10 d, 0 to 100 scale, 0 no effect, 100 complete control, read-out: Plant response rating, Blackgrass
In short: as §1

corn (Zea mays) = test: Test A postemergence; conditions: Zea mays, post-emergence, 240 h; for plant injury at 125 g/ha: 125 g ai/ha, postemergence, visual injury on 0 to 100 scale (0 no effect, 100 complete control), approx. 10 d, read-out: Corn plant response rating; for Corn plant response rating (crop injury, 0 = no effect, 100 = complete kill) at 31 g/ha: Postemergence, 31 g ai/ha, visual injury after approx. 10 d, 0 to 100 scale, 100 complete control
In short: as §1

[10] = system: giant foxtail (Setaria faberii); test: Test A postemergence; conditions: Setaria faberi, post-emergence, 240 h; for pest or weed control at 125 g/ha: 125 g ai/ha, postemergence, visual injury on 0 to 100 scale (0 no effect, 100 complete control), approx. 10 d, read-out: Foxtail, Giant plant response rating; for pest or weed control at 31 g/ha: Postemergence, 31 g ai/ha, visual injury after approx. 10 d, 0 to 100 scale, 0 no effect, 100 complete control, read-out: Plant response rating, Foxtail, Giant
In short: as §1

[11] = system: pigweed (Amaranthus retroflexus); test: Test A postemergence; conditions: Amaranthus retroflexus, post-emergence, 240 h; for pest or weed control at 125 g/ha: 125 g ai/ha, postemergence, visual injury on 0 to 100 scale (0 no effect, 100 complete control), approx. 10 d, read-out: Pigweed plant response rating; for pest or weed control at 31 g/ha: Postemergence, 31 g ai/ha, visual injury after approx. 10 d, 0 to 100 scale, 0 no effect, 100 complete control, read-out: Plant response rating, Pigweed
In short: as §1

[12] = system: ragweed (common ragweed, Ambrosia elatior); test: Test A postemergence; conditions: Ambrosia artemisiifolia, post-emergence, 240 h; for pest or weed control at 125 g/ha: 125 g ai/ha, postemergence, visual injury on 0 to 100 scale (0 no effect, 100 complete control), approx. 10 d, read-out: Ragweed plant response rating; for pest or weed control at 31 g/ha: Postemergence, 31 g ai/ha, visual injury after approx. 10 d, 0 to 100 scale, 0 no effect, 100 complete control, read-out: Plant response rating, Ragweed
In short: as §1

[13] = system: ryegrass, Italian (Italian ryegrass, Lolium multiflorum); test: Test A postemergence; conditions: Lolium multiflorum, post-emergence, 240 h; for pest or weed control at 125 g/ha: 125 g ai/ha, postemergence, visual injury on 0 to 100 scale (0 no effect, 100 complete control), approx. 10 d, read-out: Ryegrass, Italian plant response rating; for pest or weed control at 31 g/ha: Postemergence, 31 g ai/ha, visual injury after approx. 10 d, 0 to 100 scale, 0 no effect, 100 complete control, read-out: Plant response rating, Ryegrass, Italian
In short: as §1

[14] = system: wheat (Triticum aestivum); test: Test A postemergence; conditions: Triticum aestivum, post-emergence, 240 h; for plant injury at 125 g/ha: 125 g ai/ha, postemergence, visual injury on 0 to 100 scale (0 no effect, 100 complete control), approx. 10 d, read-out: Wheat plant response rating; for plant injury at 31 g/ha: Postemergence, 31 g ai/ha, visual injury after approx. 10 d, 0 to 100 scale, 0 no effect, 100 complete control, read-out: Plant response rating, Wheat
In short: as §1

[15] = system: barnyardgrass (Echinochloa crus-galli); test: Test B flooded paddy test; conditions: Echinochloa crus-galli, 250 g ai/ha, Flood; 0 to 100 scale where 0 is no effect and 100 is complete control; read-out: Barnyardgrass plant response rating
In short: (§2)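 2-leaf plants; pots flooded 3 cm over soil; cpd added to paddy water; depth held; greenhouse 13–15 d; visual rating vs controls, 0 = no effect, 100 = complete control.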

[16] = system: ducksalad (Heteranthera limosa); test: Test B flooded paddy test; conditions: Heteranthera limosa, 250 g ai/ha, Flood; 0 to 100 scale where 0 is no effect and 100 is complete control; read-out: Ducksalad plant response rating
In short: as §2

rice (Oryra sativa) = test: Test B flooded paddy test; conditions: Oryza sativa, 250 g ai/ha, Flood; 0 to 100 scale where 0 is no effect and 100 is complete control; read-out: Rice plant response rating
In short: as §2

[17] = system: sedge, umbrella (small-flower umbrella sedge, Cyperus difformis); test: Test B flooded paddy test; conditions: Cyperus difformis, 250 g ai/ha, Flood; 0 to 100 scale where 0 is no effect and 100 is complete control; read-out: Sedge, Umbrella plant response rating
In short: as §2

| SMILES | pest or weed control at 31 g/ha (Kochia (Kochia scoparia) [1]) | pest or weed control at 125 g/ha (Kochia (Kochia scoparia) [1]) | pest or weed control at 31 g/ha [2] | pest or weed control at 125 g/ha [2] | pest or weed control at 31 g/ha [3] | pest or weed control at 125 g/ha [3] | pest or weed control at 31 g/ha [4] | pest or weed control at 125 g/ha [4] | pest or weed control at 31 g/ha [5] | pest or weed control at 125 g/ha [5] | pest or weed control at 31 g/ha [6] | pest or weed control at 125 g/ha [6] | pest or weed control at 125 g/ha (Kochia (Kochia scoparia) [7]) | pest or weed control at 31 g/ha (Kochia (Kochia scoparia) [7]) | pest or weed control at 125 g/ha [8] | pest or weed control at 31 g/ha [8] | pest or weed control at 125 g/ha [9] | pest or weed control at 31 g/ha [9] | plant injury at 125 g/ha (corn (Zea mays)) | Corn plant response rating (crop injury, 0 = no effect, 100 = complete kill) at 31 g/ha (corn (Zea mays)) | other results |
| --- | --- | --- | --- | --- | --- | --- | --- | --- | --- | --- | --- | --- | --- | --- | --- | --- | --- | --- | --- | --- | --- |
| CSc1ccccc1NC(=O)[C@H]1C(=O)N(C)C[C@@H]1c1ccc(F)c(OC(C)C)c1 [Compound 1076] | 0% | 0% | 0% | 90% | 80% | 100% | 0% | 20% | 10% | 0% | 0% | 0% | 0% | 0% | 50% | 0% | 20% | 0% | 0% | 0% | pest or weed control at 125 g/ha [10]: 50%; pest or weed control at 31 g/ha [10]: 0%; pest or weed control at 125 g/ha [11]: 0%; pest or weed control at 31 g/ha [11]: 0%; pest or weed control at 125 g/ha [12]: 0%; pest or weed control at 31 g/ha [12]: 0%; pest or weed control at 125 g/ha [13]: 0%; pest or weed control at 31 g/ha [13]: 0%; plant injury at 125 g/ha [14]: 0%; plant injury at 31 g/ha [14]: 0%; pest or weed control at 250 g/ha [15]: 20%; pest or weed control at 250 g/ha [16]: 90%; pest or weed control at 250 g/ha (rice (Oryra sativa)): 40%; pest or weed control at 250 g/ha [17]: 0% |
| CN1C[C@H](c2cc(C(F)F)cs2)[C@@H](C(=O)Nc2cccc(C#N)c2F)C1=O [Compound 1093] | 0% | 50% | 40% | 90% | 100% | 100% | 0% | 80% | 0% | 20% | 0% | 0% | 20% | 0% | 80% | 40% | 0% | 0% | 0% | 0% | pest or weed control at 125 g/ha [10]: 90%; pest or weed control at 31 g/ha [10]: 30%; pest or weed control at 125 g/ha [11]: 20%; pest or weed control at 31 g/ha [11]: 0%; pest or weed control at 125 g/ha [12]: 30%; pest or weed control at 31 g/ha [12]: 0%; pest or weed control at 125 g/ha [13]: 0%; pest or weed control at 31 g/ha [13]: 0%; plant injury at 125 g/ha [14]: 0%; plant injury at 31 g/ha [14]: 0%; pest or weed control at 250 g/ha [15]: 60%; pest or weed control at 250 g/ha [16]: 80%; pest or weed control at 250 g/ha (rice (Oryra sativa)): 0%; pest or weed control at 250 g/ha [17]: 0% |

— patent US12077503B2, “Substituted cyclic amides and their use as herbicides” (FMC CORPORATION, priority 2015, dated 2024)
